Laboratory results from paper PMC10848157, “Assessing NH300094, a novel dopamine and serotonin receptor modulator with cognitive enhancement property for treating schizophrenia” (Frontiers in Pharmacology, 2024).

Legend:
[1] = biological target: T1, Alpha2A receptor (Homo sapiens, UniProt P08913); experiment: Alpha2A receptor functional assay (cAMP assay); assay type: cell-based; settings: HEK293/Alpha2A cells, read-out: Alpha2AR, IC50
T1 construct: expressed in transfected cells; host or cells: HEK293/Alpha2A (constructed by Shanghai shujing Biopharma)
T1 sequence (P08913 1-465): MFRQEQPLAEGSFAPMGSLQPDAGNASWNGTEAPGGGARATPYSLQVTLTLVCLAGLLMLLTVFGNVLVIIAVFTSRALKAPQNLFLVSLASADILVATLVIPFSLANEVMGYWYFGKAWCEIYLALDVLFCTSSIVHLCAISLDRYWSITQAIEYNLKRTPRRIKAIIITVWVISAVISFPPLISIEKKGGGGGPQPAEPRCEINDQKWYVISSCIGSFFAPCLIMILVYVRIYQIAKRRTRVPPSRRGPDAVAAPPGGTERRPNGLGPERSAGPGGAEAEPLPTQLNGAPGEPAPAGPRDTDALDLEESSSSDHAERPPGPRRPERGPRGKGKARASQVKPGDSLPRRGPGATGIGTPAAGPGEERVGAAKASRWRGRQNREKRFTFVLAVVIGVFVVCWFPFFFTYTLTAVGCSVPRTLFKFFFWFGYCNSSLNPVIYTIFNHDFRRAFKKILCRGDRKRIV

[2] = biological target: T2, H1 receptor (Homo sapiens, UniProt P35367); experiment: H1 receptor functional assay (calcium flow, FLIPR); assay type: cell-based; settings: HEK293/H1 cells, read-out: H1R, IC50
T2 construct: host or cells: HEK293/H1
T2 sequence (P35367 whole entry): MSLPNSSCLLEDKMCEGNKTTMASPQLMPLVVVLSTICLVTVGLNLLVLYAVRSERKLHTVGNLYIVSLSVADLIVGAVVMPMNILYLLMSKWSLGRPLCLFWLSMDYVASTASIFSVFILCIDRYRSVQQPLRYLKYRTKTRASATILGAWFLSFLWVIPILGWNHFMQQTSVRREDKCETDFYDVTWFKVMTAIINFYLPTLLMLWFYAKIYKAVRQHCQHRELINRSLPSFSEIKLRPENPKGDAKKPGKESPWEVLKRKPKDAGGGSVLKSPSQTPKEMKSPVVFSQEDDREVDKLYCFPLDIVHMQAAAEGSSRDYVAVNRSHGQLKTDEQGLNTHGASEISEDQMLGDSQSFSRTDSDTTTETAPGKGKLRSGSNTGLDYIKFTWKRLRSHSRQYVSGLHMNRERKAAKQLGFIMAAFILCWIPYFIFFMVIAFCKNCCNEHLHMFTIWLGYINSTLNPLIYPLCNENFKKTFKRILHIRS

O=C1CCc2cc(OCCCN3CCC(c4noc5cc(F)ccc45)CC3)cc3c2N1CC3 [NH300094, 8-(3-(4-(6-fluorobenzo [d]isoxazol-3-yl)piperidin-1-yl)propoxy)-1,2,5,6-tetrahydro-4H-pyrrolo [3,2,1-ij] quinolin-4-one]
IC50 [1]: 314 nM | IC50 [2]: 126 nM
